Test results taken from patent US20200392158A1, “INHIBITORS OF LEUCINE RICH REPEAT KINASE 2” (GLAXOSMITHKLINE INTELLECTUAL PROPERTY DEVELOPMENT LIMITED, priority 2017, published 2020).

Key:
[1] = molecular target: T1, LRRK2 kinase in SH-SY5Y cells over-expressing recombinant full length LRRK2 (Homo sapiens, UniProt Q5S007); assay: Recombinant cellular LRRK2 AlphaScreen assay (LRRK2 Ser935 phosphorylation); type: cell-based; details: 60 min
T1 construct: A BacMam virus expressing full length recombinant LRRK2 was purchased from Invitrogen; host or cells: SH-SY5Y human neuroblastoma cells transduced with BacMam LRRK2 virus
In short: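 SH-SY5Y cells transduced with BacMam full-length LRRK2 (MOI 50) for 24 h, then treated 60 min at 37 °C with compound (11-point 1:4 series, top 10 uM, 0.1% DMSO). Lysates probed by AlphaScreen for pSer935 vs total LRRK2; values fitted to a sigmoidal dose-response model.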

[2] = molecular target: T2, full length G2019 human LRRK2 (Homo sapiens, UniProt Q5S007, R50H); assay: Full length G2019 human LRRK2 inhibition mass spectrometry assay; type: biochemical; details: LRRKtide to phospho-LRRKtide conversion, RapidFire MS, 2 mM ATP
T2 construct: made in house; host or cells: HEK293 6E cells transduced with BacMam virus (virus generated in Sf9 cells)
In short: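 Purified full-length Flag-tagged G2019 LRRK2, ~25 nM, with 25 μM LRRKtide and 2 mM ATP in 50 mM Hepes pH 7.2, 10 mM MgCl2, 150 mM NaCl, 1 h at room temperature. Quenched with formic acid; phospho- and unphosphorylated LRRKtide measured by RapidFire MS. pIC50 from 4-parameter fit of % conversion, 11 points, top 100 μM.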

T1 sequence (Q5S007 whole entry): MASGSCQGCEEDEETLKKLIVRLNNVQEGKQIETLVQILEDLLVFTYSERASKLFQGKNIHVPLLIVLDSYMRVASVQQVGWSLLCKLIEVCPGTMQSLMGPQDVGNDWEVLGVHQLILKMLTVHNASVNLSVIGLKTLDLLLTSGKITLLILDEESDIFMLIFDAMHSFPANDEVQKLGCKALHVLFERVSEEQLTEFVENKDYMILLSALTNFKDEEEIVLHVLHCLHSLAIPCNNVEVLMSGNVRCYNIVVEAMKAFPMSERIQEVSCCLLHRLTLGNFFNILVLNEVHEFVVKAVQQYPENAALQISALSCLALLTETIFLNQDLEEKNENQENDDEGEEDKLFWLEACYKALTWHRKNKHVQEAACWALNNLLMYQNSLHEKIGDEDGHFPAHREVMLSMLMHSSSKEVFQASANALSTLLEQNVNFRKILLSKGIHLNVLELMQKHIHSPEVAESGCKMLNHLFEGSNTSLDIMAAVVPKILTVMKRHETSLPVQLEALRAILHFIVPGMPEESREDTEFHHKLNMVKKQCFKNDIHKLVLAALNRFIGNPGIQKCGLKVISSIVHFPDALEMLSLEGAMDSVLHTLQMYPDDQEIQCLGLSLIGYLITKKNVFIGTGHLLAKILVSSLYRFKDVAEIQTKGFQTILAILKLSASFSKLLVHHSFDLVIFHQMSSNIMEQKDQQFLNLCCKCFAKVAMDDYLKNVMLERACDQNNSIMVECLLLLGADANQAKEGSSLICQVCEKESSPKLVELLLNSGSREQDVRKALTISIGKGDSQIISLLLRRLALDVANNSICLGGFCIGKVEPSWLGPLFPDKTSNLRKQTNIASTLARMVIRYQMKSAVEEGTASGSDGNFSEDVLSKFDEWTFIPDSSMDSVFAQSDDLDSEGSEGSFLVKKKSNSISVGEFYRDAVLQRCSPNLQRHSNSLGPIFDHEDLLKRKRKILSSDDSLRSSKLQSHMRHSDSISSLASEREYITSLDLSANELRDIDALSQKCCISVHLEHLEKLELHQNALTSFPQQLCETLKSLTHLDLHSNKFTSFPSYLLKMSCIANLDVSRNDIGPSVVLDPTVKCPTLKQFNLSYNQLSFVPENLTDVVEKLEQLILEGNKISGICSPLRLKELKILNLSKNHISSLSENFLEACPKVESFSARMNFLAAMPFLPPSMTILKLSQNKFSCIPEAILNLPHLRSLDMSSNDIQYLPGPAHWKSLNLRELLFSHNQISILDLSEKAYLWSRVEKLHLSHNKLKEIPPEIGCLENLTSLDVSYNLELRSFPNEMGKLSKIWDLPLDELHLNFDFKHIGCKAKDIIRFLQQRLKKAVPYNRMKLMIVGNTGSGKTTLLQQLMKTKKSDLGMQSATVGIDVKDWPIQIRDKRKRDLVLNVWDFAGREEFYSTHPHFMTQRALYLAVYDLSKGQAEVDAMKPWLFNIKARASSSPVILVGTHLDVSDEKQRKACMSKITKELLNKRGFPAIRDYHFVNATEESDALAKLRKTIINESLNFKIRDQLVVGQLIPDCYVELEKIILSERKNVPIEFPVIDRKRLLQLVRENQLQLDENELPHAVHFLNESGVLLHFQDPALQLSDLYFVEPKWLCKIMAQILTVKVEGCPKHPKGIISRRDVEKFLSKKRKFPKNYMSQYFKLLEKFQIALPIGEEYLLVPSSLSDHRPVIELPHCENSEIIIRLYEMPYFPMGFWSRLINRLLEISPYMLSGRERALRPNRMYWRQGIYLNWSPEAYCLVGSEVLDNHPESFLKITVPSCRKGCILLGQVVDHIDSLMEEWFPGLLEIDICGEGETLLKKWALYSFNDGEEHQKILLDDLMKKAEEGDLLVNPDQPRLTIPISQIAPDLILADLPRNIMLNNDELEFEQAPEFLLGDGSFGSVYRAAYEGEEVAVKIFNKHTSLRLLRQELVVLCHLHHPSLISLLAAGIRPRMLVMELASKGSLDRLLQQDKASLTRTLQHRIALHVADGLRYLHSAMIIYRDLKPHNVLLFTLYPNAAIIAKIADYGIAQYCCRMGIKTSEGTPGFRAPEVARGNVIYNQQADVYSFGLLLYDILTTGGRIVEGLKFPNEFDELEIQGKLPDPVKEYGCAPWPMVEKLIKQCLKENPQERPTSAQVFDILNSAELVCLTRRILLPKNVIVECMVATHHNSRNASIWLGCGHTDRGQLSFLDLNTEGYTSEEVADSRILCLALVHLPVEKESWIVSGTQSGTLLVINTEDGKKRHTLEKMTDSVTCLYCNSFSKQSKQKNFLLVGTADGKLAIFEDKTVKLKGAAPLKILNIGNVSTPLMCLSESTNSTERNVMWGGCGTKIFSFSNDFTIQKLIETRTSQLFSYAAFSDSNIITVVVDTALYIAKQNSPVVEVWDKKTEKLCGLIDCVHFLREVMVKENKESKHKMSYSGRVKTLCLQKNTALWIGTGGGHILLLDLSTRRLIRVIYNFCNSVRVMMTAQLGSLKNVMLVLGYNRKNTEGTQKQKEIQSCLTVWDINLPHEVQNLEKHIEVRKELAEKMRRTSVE
T2 sequence (Q5S007 with tags, fused parts or gaps R50H): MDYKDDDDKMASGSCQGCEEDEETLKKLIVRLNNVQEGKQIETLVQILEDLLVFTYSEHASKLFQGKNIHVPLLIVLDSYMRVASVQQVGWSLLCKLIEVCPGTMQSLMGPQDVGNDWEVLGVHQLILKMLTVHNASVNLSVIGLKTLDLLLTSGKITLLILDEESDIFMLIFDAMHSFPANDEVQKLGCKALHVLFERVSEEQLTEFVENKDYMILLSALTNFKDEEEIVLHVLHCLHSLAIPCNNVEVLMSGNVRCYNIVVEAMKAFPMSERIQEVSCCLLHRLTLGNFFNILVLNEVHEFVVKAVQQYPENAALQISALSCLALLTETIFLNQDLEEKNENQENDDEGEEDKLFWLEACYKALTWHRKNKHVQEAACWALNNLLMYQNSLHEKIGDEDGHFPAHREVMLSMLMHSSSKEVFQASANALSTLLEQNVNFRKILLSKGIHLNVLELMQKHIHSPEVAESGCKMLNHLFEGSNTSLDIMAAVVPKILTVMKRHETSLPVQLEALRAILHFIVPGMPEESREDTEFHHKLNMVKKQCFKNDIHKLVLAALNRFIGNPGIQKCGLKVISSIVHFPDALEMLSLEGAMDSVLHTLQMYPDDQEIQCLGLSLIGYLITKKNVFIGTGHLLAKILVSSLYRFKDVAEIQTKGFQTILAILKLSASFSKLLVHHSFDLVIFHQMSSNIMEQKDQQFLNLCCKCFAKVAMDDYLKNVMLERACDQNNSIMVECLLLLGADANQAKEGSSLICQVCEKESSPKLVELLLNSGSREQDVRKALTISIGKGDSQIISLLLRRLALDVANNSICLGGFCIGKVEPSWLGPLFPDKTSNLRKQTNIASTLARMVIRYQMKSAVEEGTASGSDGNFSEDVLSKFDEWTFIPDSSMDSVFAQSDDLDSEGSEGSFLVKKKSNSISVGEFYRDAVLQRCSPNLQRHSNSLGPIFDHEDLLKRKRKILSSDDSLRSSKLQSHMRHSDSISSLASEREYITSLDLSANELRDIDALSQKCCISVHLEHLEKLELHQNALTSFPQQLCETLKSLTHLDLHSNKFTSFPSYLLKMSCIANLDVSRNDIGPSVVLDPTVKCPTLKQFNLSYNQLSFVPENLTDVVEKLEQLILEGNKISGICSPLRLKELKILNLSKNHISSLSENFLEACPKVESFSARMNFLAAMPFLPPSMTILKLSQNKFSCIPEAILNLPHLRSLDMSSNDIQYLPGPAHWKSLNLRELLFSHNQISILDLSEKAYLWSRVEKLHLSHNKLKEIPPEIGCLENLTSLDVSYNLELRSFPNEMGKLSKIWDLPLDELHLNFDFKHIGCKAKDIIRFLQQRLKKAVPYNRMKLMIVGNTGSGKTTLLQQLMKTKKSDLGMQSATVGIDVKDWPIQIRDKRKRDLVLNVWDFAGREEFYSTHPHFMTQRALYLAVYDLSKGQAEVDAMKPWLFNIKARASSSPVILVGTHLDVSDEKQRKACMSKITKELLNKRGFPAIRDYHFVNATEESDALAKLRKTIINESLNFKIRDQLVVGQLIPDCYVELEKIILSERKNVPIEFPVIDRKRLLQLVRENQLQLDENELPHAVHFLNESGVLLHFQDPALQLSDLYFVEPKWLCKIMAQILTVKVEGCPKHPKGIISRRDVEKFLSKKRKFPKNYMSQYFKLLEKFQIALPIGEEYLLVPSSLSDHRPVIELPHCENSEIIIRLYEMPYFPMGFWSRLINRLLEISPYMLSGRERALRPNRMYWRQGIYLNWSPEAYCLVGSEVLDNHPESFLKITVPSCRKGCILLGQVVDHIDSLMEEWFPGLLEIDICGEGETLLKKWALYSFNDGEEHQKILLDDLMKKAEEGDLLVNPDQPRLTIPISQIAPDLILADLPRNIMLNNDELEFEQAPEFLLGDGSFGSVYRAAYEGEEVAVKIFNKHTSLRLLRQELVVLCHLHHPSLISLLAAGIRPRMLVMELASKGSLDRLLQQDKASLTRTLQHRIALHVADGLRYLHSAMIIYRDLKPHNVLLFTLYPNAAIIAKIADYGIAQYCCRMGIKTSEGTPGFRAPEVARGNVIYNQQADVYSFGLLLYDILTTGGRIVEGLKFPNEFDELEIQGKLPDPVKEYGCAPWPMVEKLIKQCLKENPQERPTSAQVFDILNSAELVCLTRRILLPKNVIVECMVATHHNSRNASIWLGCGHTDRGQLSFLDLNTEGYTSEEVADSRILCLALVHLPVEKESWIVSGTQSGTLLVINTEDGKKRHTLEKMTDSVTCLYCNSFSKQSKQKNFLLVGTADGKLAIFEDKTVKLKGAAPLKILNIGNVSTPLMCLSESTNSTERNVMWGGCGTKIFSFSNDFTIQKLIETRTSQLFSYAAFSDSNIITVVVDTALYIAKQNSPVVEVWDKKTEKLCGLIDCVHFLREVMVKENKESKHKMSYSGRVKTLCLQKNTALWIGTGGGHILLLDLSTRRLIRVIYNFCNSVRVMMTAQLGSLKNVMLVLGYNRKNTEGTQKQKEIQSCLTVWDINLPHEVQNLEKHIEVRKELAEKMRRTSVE

| SMILES | IC50 [1] [nM] | IC50 [2] [nM] |
| --- | --- | --- |
| Cc1c2c(nn1C1CC(O)C1)OCC[C@@H](C)Nc1nc(ncc1Cl)N2 (stereo partly drawn) [E375, 3-[(11R)-14-Chloro-4,11-dimethyl-8-oxa-2,5,6,12,16,17-hexaazatricyclo[11.3.1.0^3,7]heptadeca-1(16),3,6,13(17),14-pentaen-5-yl]cyclobutan-1-ol] | ≤ 100 | ≤ 100 |
| Cc1c2c(nn1C1CC(O)C1)OCC[C@@H](C)N(C)c1nc(ncc1Cl)N2 (stereo partly drawn) [E376, 3-[(11R)-14-Chloro-4,11,12-trimethyl-8-oxa-2,5,6,12,16,17-hexaazatricyclo[11.3.1.0^3,7]heptadeca-1(16),3,6,13(17),14-pentaen-5-yl] cyclobutan-1-ol] | ≤ 100 | ≤ 100 |
| Cc1c2c(nn1C1CCOCC1)OCC(F)(F)CNc1nc(ncc1Cl)N2 [E377, 14-Chloro-10,10-difluoro-4-methyl-5-(oxan-4-yl)-8-oxa-2,5,6,12,16,17-hexaazatricyclo[11.3.1.0^3,7]heptadeca-1(16),3,6,13(17),14-pentaene] | ≤ 100 | ≤ 100 |
| Cc1c2c(nn1C1CC(OC(F)F)C1)OCC[C@@H](C)Nc1nc(ncc1Cl)N2 (stereo partly drawn) [E378, (11R)-14-Chloro-5-[3-(difluoromethoxy)cyclobutyl]-4,11-dimethyl-8-oxa-2,5,6,12,16,17-hexaazatricyclo[11.3.1.0^3,7] heptadeca-1(16),3,6,13(17),14-pentaene] | ≤ 100 | ≤ 100 |
| Cc1c2c(nn1C1CCCOC1)OCCCNc1cc(ncc1Cl)N2 (stereo not drawn) [E379, 14-Chloro-4-methyl-5-(oxan-3-yl)-8-oxa-2,5,6,12,16-pentaazatricyclo[11.3.1.0^3,7] heptadeca-1 (16),3,6,13(17),14-pentaene] | ≤ 100 | ≤ 100 |
| Cc1c2c(nn1C1CCN(C3CCOC3)CC1)OCC[C@@H](C)Nc1nc(ncc1Cl)N2 (stereo partly drawn) [E382, (11R)-14-Chloro-4,11-dimethyl-5-[1-(oxolan-3-yl)piperidin-4-yl]-8-oxa-2,5,6,12,16,17-hexaazatricyclo[11.3.1.0^3,7]heptadeca-1(16),3,6,13(17),14-pentaene] | ≤ 100 | ≤ 100 |
| Cc1c2c(nn1C1CN(C3CCCOC3)C1)OCC[C@@H](C)Nc1nc(ncc1Cl)N2 (stereo partly drawn) [E385, (11R)-14-Chloro-4,11-dimethyl-5[1-(oxan-3-yl)azetidin-3-yl]-8-oxa-2,5,6,12,16,17-hexaazatricyclo[11.3.1.0^3,7]heptadeca-1(16),3,6,13(17),14-pentaene] | ≤ 100 | ≤ 100 |
| Cc1c2c(nn1C1CCOC(C)C1)OCCC(C(F)F)Nc1nc(ncc1Cl)N2 (stereo not drawn) [E386, 14-Chloro-11-(difluoromethyl)-4-methyl-5-(2-methyloxan-4-yl)-8-oxa-2,5,6,12,16,17-hexaazatricyclo[11.3.1.0^3,7]heptadeca-1(16),3,6,13(17),14-pentaene] | ≤ 100 | ≤ 100 |
| Cc1c2c(nn1C1CCOCC1F)OC[C@@H](F)[C@@H](C)Nc1nc(ncc1Cl)N2 (stereo partly drawn) [E387, (10S, 11R)-14-Chloro-10-fluoro-5-(3-fluorooxan-4-yl)-4,11-dimethyl-8-oxa-2,5,6,12,16,17-hexaazatricyclo[11.3.1.0^3,7] heptadeca-1(16),3,6,13(17),14-pentaene] | ≤ 100 | ≤ 100 |
| C=Cc1cnc2nc1N[C@H](C)CCOc1nn(C3CCOCC3)c(C)c1N2 [E389, (11R)-14-Ethenyl-4,11-dimethyl-5-(oxan-4-yl)-8-oxa-2,5,6,12,16,17-hexaazatricyclo[11.3.1.0^3,7]heptadeca-1(16)53,6,13(17),14-pentaene] | ≤ 100 | ≤ 100 |
| Cc1c2c(nn1C1CCOCC1)OCC(F)C(CF)Nc1nc(ncc1Cl)N2 (stereo not drawn) [E391, 14-Chloro-10-fluoro-11-(fluoromethyl)-4-methyl-5-(oxan-4-yl)-8-oxa-2,5,6,12,16,17-hexaazatricyclo[11.3.1.0^3,7]heptadeca-1(16),3,6,13(17),14-pentaene] | ≤ 100 | ≤ 100 |
| Cc1[nH]nc2c1Nc1ncc(Cl)c(n1)N[C@H](C)CCO2 [E394, (11R)-14-Chloro-4,11-dimethyl-8-oxa-2,5,6,12,16,17-hexaazatricyclo[11.3.1.0^3,7]heptadeca-1(16),3,6,13(17),14-pentaene] | ≤ 100 | ≤ 100 |
| Cc1[nH]nc2c1Nc1ncc(Cl)c(n1)NCCCO2 [E395, 14-Chloro-4-methyl-8-oxa-2,5,6,12,16,17-hexaazatricyclo [11.3.1.0^3,7]heptadeca-1(16),3,6,13(17),14-pentaene] | ≤ 100 | ≤ 100 |
| Clc1cnc2nc1NCCCOc1n[nH]c(Cl)c1N2 [E396, 4,14-Dichloro-8-oxa-2,5,6,12,16,17 hexaazatricyclo[11.3.1.0^3,7] heptadeca-1(16),3,6,13(17),14-pentaene] | ≤ 100 | ≤ 100 |
| C[C@@H]1CCOc2n[nH]c(Cl)c2Nc2ncc(Cl)c(n2)N1 [E397, (11R)-4,14-Dichloro-11-methyl-8-oxa-2,5,6,12,16,17-hexaazatricyclo[11.3.1.0^3,7]heptadeca-1(16),3,6,13(17),14-pentaene] | ≤ 100 | ≤ 100 |
| CCc1c2c(nn1C1CCOCC1)OCC[C@@H](C)Nc1nc(ncc1Cl)N2 [E399, (11R)-14-Chloro-4-ethyl-11-methyl-5-(oxan-4-yl)-8-oxa-2,5,6,12,16,17-hexaazatricyclo[11.3.1.0^3,7]heptadeca-1(16),3,6,13(17),14-pentaene] | ≤ 100 | ≤ 100 |
| C#Cc1cnc2nc1N[C@H](C)CCOc1nn(C3CCOCC3)c(C)c1N2 [E401, (11R)-14-Ethynyl-4,11-dimethyl-5-(oxan-4-yl)-8-oxa-2,5,6,12,16,17-hexaazatricyclo[11.3.1.0^3,7]heptadeca-1(16),3,6,13(17),14-pentaene] | ≤ 100 | ≤ 100 |

Second part, the compound after the results:

| IC50 [1] [nM] | IC50 [2] [nM] | SMILES |
| --- | --- | --- |
| ≤ 100 | ≤ 100 | Cc1c2c(nn1C(C)(C)C#N)OCCCNc1nc(ncc1Cl)N2 [E191, 2-{14-Chloro-4-methyl-8-oxa-2,5,6,12,16,17-hexaazatricyclo [11.3.1.0^3,7]heptadeca-1(16),3,6,13(17),14-pentaen-5-yl}-2-methylpropanenitrile] |
| ≤ 100 | ≤ 100 | Cc1c2c(nn1CC(F)(F)F)OCCCNc1nc(ncc1Cl)N2 [E266, 14-Chloro-4-methyl-5-(2,2,2-trifluoroethyl)-8-oxa-2,5,6,12,16,17-hexaazatricyclo[11.3.1.0^3,7]heptadeca-1(16),3,6,13(17),14-pentaene] |
| ≤ 100 | ≤ 100 | Cc1c2c(nn1C1CC3(COC3)C1)OCC[C@@H](C)Nc1nc(ncc1Cl)N2 [E301, (11R)-14-Chloro-4,11-dimethyl-5-{2-oxaspiro[3.3]heptan-6-yl}-8-oxa-2,5,6,12,16,17-hexaazatricyclo[11.3.1.0^3,7]heptadeca-1(17),3,6,13,15-pentaene] |
| ≤ 100 | ≤ 100 | Cc1c2c(nn1C1CC(N3C[C@@H]4C[C@H]3CO4)C1)OCCCNc1nc(ncc1Cl)N2 (stereo partly drawn) [E311, 14-Chloro-4-methyl-5-{3-[(1S,4S)-2-oxa-5-azabicyclo[2.2.1]heptan-5-yl]-cyclobutyl}-8-oxa-2,5,6,12,16,17-hexaazatricyclo [11.3.1.0^3,7]heptadeca-1(16),3,6,13(17),14-pentaene] |
| ≤ 100 | 100000 | Cc1c2c(nn1C1CC(N3CCC(F)(F)C3)C1)OCCCNc1nc(ncc1Cl)N2 (stereo not drawn) [E312, 14-Chloro-5-[3-(3,3-difluoropyrrolidin-1-yl)cyclobutyl]-4-methyl-8-oxa-2,5,6,12,16,17-hexaazatricyclo[11.3.1.0^3,7] heptadeca-1(16),3,6,13(17),14-pentaene] |
| ≤ 100 | ≤ 100 | Cc1c2c(nn1C1CC(N3C[C@H]4C[C@@H]3CO4)C1)OCC[C@@H](C)Nc1nc(ncc1Cl)N2 (stereo partly drawn) [E317, (11R)-14-Chloro-4,11-dimethyl-5-{3-[(1R,4R)-2-oxa-5-azabicycle [2.2.1]heptan-5-yl]cyclobutyl}-8-oxa-2,5,6,12,16,17-hexaaza tricyclo[11.3.1.0^3,7]heptadeca-1(16),3,6,13(17),14-pentaene] |
| ≤ 100 | ≤ 10000 | Cc1c2c(nn1C(=O)C1CCOCC1)OCCCNc1nc(ncc1Cl)N2 [E363, 14-Chloro-4-methyl-5-(oxane-4-carbonyl)-8-oxa-2,5,6,12,16,17-hexaazatricyclo[11.3.1.0^3,7]heptadeca-1(16),3,6,13(17),14-pentaene] |
| ≤ 100 | ≤ 100 | Cc1c2c(nn1C1CN(C3CCOCC3)C1)OCC[C@@H](C)Nc1nc(ncc1Cl)N2 [E365, (11R)-14-Chloro-4,11-dimethyl-5-[1-(oxan-4-yl)azetidin-3-yl]-8-oxa-2,5,6,12,16,17-hexaazatricyclo[11.3.1.0^3,7]heptadeca-1(16), 3,6,13(17),14-pentaene] |
| ≤ 100 | ≤ 100 | Cc1c2c(nn1C1CN(C3CCOCC3)C1)OCCCNc1nc(ncc1Cl)N2 [E366, 14-Chloro-4-methyl-5-[1-(oxan-4-yl)azetidin-3-yl]-8-oxa-2,5,6,12, 16,17-hexaazatricyclo[11.3.1.0^3,7]heptadeca-1(16),3,6,13(17),14-pentaene] |
| ≤ 100 | ≤ 100 | Cc1c2c(nn1C1CCOCC1)OCCCNc1nc(ncc1Br)N2 [E367, 14-Bromo-4-methyl-5-(oxan-4-yl)-8-oxa-2,5,6,12,16,17-hexaaza tricyclo[11.3.1.0^3,7]heptadeca-1(16),3,6,13(17),14-pentaene] |
